In patent publication US7947688B2, “N-[3-(3-substituted-pyrazolo[1,5-a]pyrimidin-7-yl)phenyl]-sulfonamides, and compositions, and methods related thereto” (Ferrer Internacional, S.A., priority 2003, dated 2011):

Key:
male CD1 mice = test: Predictive sedation-hypnosis test in mice (motor activity, crossings); type: in vivo; details: single equimolecular intraperitoneal dose, crossings over 30 min after dosing (first 5 min discarded) versus control
Protocol: • In vivo determination of predictive sedative-hypnotic action.
The in vivo effects of these compounds were assessed by a predictive sedation-hypnosis test in mice (D. J. Sanger et al., Eur. J. Pharmacol., 313, 35-42, 1996; and G. Griebel et al., Psychopharmacology, 146, 205-213, 1999). Groups of 5-8 male CD1 mice, weighing 22-26 g at the time of test, were used. The test compounds were administered in single equimolecular intraperitoneal doses, suspended in 0.25% agar with one drop of Tween in a volume of 10 ml/kg. Control animals received the vehicle alone. Using an Actisystem DAS16 (Panlab, S. L., Spain) the crossings (number of counts) were recorded for each mouse at 5-min intervals during a period of 30 minutes after dosing. The inhibition percentage of crossings of treated animals versus control animals (the first 5 min were discarded) was calculated.

α2-GABAA receptor = α2-GABAA receptor (Rattus norvegicus, UniProt P18508+P23576); test: Ligand-binding assay, radiolabeled flumazenil competition, rat spinal cord membranes; details: for inhibition at 10 µM: read-out: % Inhibition (10^−5 M), affinity for α2-GABAA receptor; for inhibition at 0.1 µM: read-out: % Inhibition (10^−7 M), affinity for α2-GABAA receptor
Protocol: Determination of the affinity of test compounds for α1- and α2-GABAA receptor.
Male Sprague-Dawley rats weighing 200-250 g at the time of experiment were used. After decapitation of the animal, the cerebellum (tissue that mostly contains α1-GABAA receptor) and spinal cord (tissue that mostly contains α2-GABAA receptor) were removed. The membranes were prepared according to the method by J. Lameh et al. (Prog. Neuro-Psychopharmacol. Biol. Psychiatry, 24, 979-991, 2000). Once the tissues weighed, they were suspended in 50 mM Tris.HCl (pH 7.7), 1:40 (v/v), homogenized and then centrifuged at 20000 g for 10 min at 7° C. The resulting pellet was resuspended under the same conditions and centrifuged again. The pellet was finally resuspended on a minimum volume and kept at −80° C. overnight. On the next day, the process was repeated until the final pellet was resuspended at a ratio of 1:10 (v/v).
Affinity was determined by competitive tests using radiolabeled flumazenil as ligand. The tests were performed according to the methods described by S. Arbilla et al. (Eur. J. Pharmacol., 130, 257-263, 1986); and Y. Wu et al. (Eur. J. Pharmacol., 278, 125-132, 1995). The membranes containing the study receptors, flumazenil (radiolabeling at a final concentration of 1 nM) and ascending concentrations of test compounds (in a total volume of 500 μl in […] [ph 7.4] Tris.HCl buffer) were incubated. Simultaneously, the membranes were only incubated with the radiolabeled flumazenil (total binding, 100%) and in the presence of an elevated concentration of unradiolabeled flumazenil (non-specific binding, % estimation of radiolabeled ligand). The reactions started on adding the radiolabeled ligand followed by incubation for 60 minutes at 0° C. At the end of the incubation period, the tubes were filtered using a Brandel Mod. M-48R harvester and then washed three times with cold test buffer. The harvester was fitted with a GF/B filter that retained the membranes containing the receptors and the radiolabeled ligand which had been bound to the receptors. Then the filters were removed and left till dry. Once dried, the filters were cut, placed in vials with scintillation liquid and left under stirring overnight. The next day the filters were counted using a Packard Mod. Tricarb scintillation counter.
X: amount of bound ligand for every concentration of compound.
T: total binding, maximum amount bound to the radiolabeled ligand.
N: non-specific binding, amount of radiolabeled ligand bound in a non-specific way irrespective of the receptor used.
Every concentrations of compound were tested in duplicate and their mean values were used to determine the experimental values of % specific binding versus the concentration of compound. […] Inhibition constants (Ki) were calculated from the IC50 values according to Cheng-Prusoff's formula (Y. Cheng y W. H. Prusoff, Biochem. Pharmacol., 22(23), 3099-3108, 1973).

Row | SMILES | % Motor Activity Inhibition (male CD1 mice) [%] | inhibition at 10 µM (α2-GABAA receptor) [%] | inhibition at 0.1 µM (α2-GABAA receptor) [%]
1 | CCN(c1cccc(-c2ccnc3c(C#N)cnn23)c1)S(C)(=O)=O [Example 5, N-[3-(3-cyano-pyrazolo[1,5-a]pyrimidin-7-yl)-phenyl]-N-ethyl-methanesulfonamide] | 80.91 |  | 
2 | CCN(c1cccc(-c2ccnc3c(C(=O)c4cccs4)cnn23)c1)S(C)(=O)=O [Example 6, N-ethyl-N-{3-[3-(thiophene-2-carbonyl)-pyrazolo[1,5-a]pyrimidin-7-yl]-phenyl}-methanesulfonamide] | 66.55 |  | 
3 | C#CCN(c1cccc(-c2ccnc3c(C(=O)c4cccs4)cnn23)c1)S(C)(=O)=O [Example 16, N-2-propynyl-N-{3-[3-(thiophene-2-carbonyl)-pyrazolo[1,5-a]pyrimidin-7-yl]-phenyl}-methanesulfonamide] | 95.36 |  | 
4 | CCCN(c1cccc(-c2ccnc3c(C(=O)c4cccs4)cnn23)c1)S(=O)(=O)CC [Example 17, N-propyl-N-{3-[3-(thiophene-2-carbonyl)-pyrazolo[1,5-a]pyrimidin-7-yl]-phenyl}-ethanesulfonamide] | 94.21 | 74.5 | 0
5 | CCN(c1cccc(-c2ccnc3c(C(=O)c4cccs4)cnn23)c1)S(=O)(=O)CC [Example 18, N-ethyl-N-{3-[3-(thiophene-2-carbonyl)-pyrazolo[1,5-a]pyrimidin-7-yl]-phenyl}-ethanesulfonamide] | 93.39 | 93.7 | 20.7
6 | C#CCN(c1cccc(-c2ccnc3c(C(=O)c4cccs4)cnn23)c1)S(=O)(=O)C(C)C [Example 19, N-2-propynyl-N-{3-[3-(thiophene-2-carbonyl)-pyrazolo[1,5-a]pyrimidin-7-yl]-phenyl}-2-propanesulfonamide] | 89.88 | 94.4 | 45.2
7 | CCS(=O)(=O)N(C)c1cccc(-c2ccnc3c(C(=O)c4cccs4)cnn23)c1 [Example 20, N-methyl-N-{3-[3-(thiophene-2-carbonyl)-pyrazolo[1,5-a]pyrimidin-7-yl]-phenyl}-ethanesulfonamide] | 95.23 | 97.7 | 40.3
8 | O=C(c1cccs1)c1cnn2c(-c3cccc(N4CCCS4(=O)=O)c3)ccnc12 [Example 22, 7-(3-(2-isothiazolidinyl-1,1-dioxide)-phenyl)-3-(thiophene-2-carbonyl)-pyrazolo[1,5-a]pyrimidine] | 91.39 | 98.2 | 24.2
9 | CC(C)S(=O)(=O)N(C)c1cccc(-c2ccnc3c(C(=O)c4cccs4)cnn23)c1 [Example 23, N-methyl-N-{3-[3-(thiophene-2-carbonyl)-pyrazolo[1,5-a]pyrimidin-7-yl]-phenyl}-2-propane-sulfonamide] | 94.57 | 93.8 | 45.5
10 | CCN(c1cccc(-c2ccnc3c(C(=O)c4cccs4)cnn23)c1)S(=O)(=O)C(C)C [Example 24, N-ethyl-N-{3-[3-(thiophene-2-carbonyl)-pyrazolo[1,5-a]pyrimidin-7-yl]-phenyl}-2-propane-sulfonamide] | 94.01 | 83 | 10.4
11 | CCCN(c1cccc(-c2ccnc3c(C(=O)c4cccs4)cnn23)c1)S(=O)(=O)C(C)C [Example 25, N-propyl-N-{3-[3-(thiophene-2-carbonyl)-pyrazolo[1,5-a]pyrimidin-7-yl]-phenyl}-2-propane-sulfonamide] | 92.79 | 78.9 | 9.1
12 | C#CCN(c1cccc(-c2ccnc3c(C#N)cnn23)c1)S(C)(=O)=O [Example 27, N-[3-(3-cyano-pyrazolo[1,5-a]pyrimidin-7-yl)-phenyl]-N-2-propynyl-methanesulfonamide] | 93.12 | 85.2 | 2.9
13 | CCN(c1cccc(-c2ccnc3c(C#N)cnn23)c1)S(=O)(=O)CC [Example 29, N-[3-(3-cyano-pyrazolo[1,5-a]pyrimidin-7-yl)-phenyl]-N-ethyl-ethanesulfonamide] | 93.73 | 92.7 | 13.4
14 | C#CCN(c1cccc(-c2ccnc3c(C#N)cnn23)c1)S(=O)(=O)C(C)C [Example 30, N-[3-(3-cyano-pyrazolo[1,5-a]pyrimidin-7-yl)-phenyl]-N-2-propynyl-propane-2-sulfonamide] | 94.86 | 73.3 | 0
15 | N#Cc1cnn2c(-c3cccc(N4CCCS4(=O)=O)c3)ccnc12 [Example 33, 7-(3-(2-isothiazolidinyl-1,1-dioxide)-phenyl)-3-cyano-pyrazolo[1,5-a]pyrimidine] | 77.58 | 45.2 | 0
16 | CC(C)S(=O)(=O)N(C)c1cccc(-c2ccnc3c(C#N)cnn23)c1 [Example 34, N-[3-(3-cyano-pyrazolo[1,5-a]pyrimidin-7-yl)-phenyl]-N-methyl-2-propanesulfonamide] | 92.58 | 87.6 | 6.9
17 | CCN(c1cccc(-c2ccnc3c(C#N)cnn23)c1)S(=O)(=O)C(C)C [Example 35, N-[3-(3-cyano-pyrazolo[1,5-a]pyrimidin-7-yl)-phenyl]-N-ethyl-2-propanesulfonamide] | 92.55 | 86.5 | 24.5
18 | CCCN(c1cccc(-c2ccnc3c(C#N)cnn23)c1)S(=O)(=O)C(C)C [Example 37, N-[3-(3-cyano-pyrazolo[1,5-a]pyrimidin-7-yl)-phenyl]-N-propyl-2-propanesulfonamide] | 92.13 | 40.2 | 0
19 | C#CCN(c1cccc(-c2ccnc3c(C#N)cnn23)c1)S(=O)(=O)CC [Example 38, N-[3-(3-cyano-pyrazolo[1,5-a]pyrimidin-7-yl)-phenyl]-N-2-propynyl-ethanesulfonamide] | 94.85 | 77.6 | 17.4
20 | CN(c1cccc(-c2ccnc3c(C(=O)c4ccccn4)cnn23)c1)S(C)(=O)=O [Example 39, N-methyl-N-{3-[3-(pyridin-2-carbonyl)-pyrazolo[1,5-a]pyrimidin-7-yl]-phenyl}-methanesulfonamide] | 95.28 | 96.6 | 23.3
21 | CCN(c1cccc(-c2ccnc3c(C(=O)c4ccccn4)cnn23)c1)S(C)(=O)=O [Example 40, N-ethyl-N-{3-[3-(pyridin-2-carbonyl)-pyrazolo[1,5-a]pyrimidin-7-yl]-phenyl}-methanesulfonamide] | 94.32 | 99.5 | 47.3
22 | CCN(c1cccc(-c2ccnc3c(C(=O)c4ccncc4)cnn23)c1)S(C)(=O)=O [Example 46, N-ethyl-N-{3-[3-(pyridin-4-carbonyl)-pyrazolo[1,5-a]pyrimidin-7-yl]-phenyl}-methanesulfonamide] | 93.98 | 97.6 | 11.9
23 | CCN(C(C)=O)c1cccc(-c2ccnc3c(C#N)cnn23)c1 [Zaleplon, reference compound] | 47.17 |  | 
